# Source: patent publication US9618511B2, “Methods and compositions for treating alzheimer's disease” (Eleanore Bennett Charitable Trust #2, priority 2008, dated 2017)
# Entries after “also recorded” stand apart in the source; their conditions may differ. Like-named read-outs stand apart in the source and are kept apart here.
# Tests used:
# pre-activated Akt1 = biological target: T1, pre-activated Akt1 (Mus musculus, UniProt P31750); experiment: In vitro kinase assay on pre-activated (insulin-conditioned) Akt1; assay type: biochemical, mouse (C2C12 myotubes); conditions: 10 μM peptide
# T1 construct: Akt1 was immunoprecipitated from control and insulin treated C2C12 myotubes for in vitro kinase assay; endogenous in cells; host or cells: insulin-treated mouse C2C12 myotubes
# Experimental: (§1) Akt1 was immunoprecipitated (IP) overnight from 100 μg of the human brain sample or from C2C12 myotubes infected with adenovirus encoding Aβ using a 1:100 dilution of goat anti-Akt1 antibody. The following morning, 40 μl of a 50% slurry of protein G-Agarose (PGA) (Roche Applied Science) was added for an additional 1.5 hours. The beads were washed twice with wash buffer [1× phosphate buffered saline (PBS), 0.5% NP-40, 0.1 mM Na3VO4] and twice with kinase buffer [25 mM Tris (pH 7.5), 2 mM DTT, 0.1 mM Na3VO4, 10 mM MgCl2]. ATP (200 μM) and GSK-3 fusion protein (1 μg/50 μl) were added in the presence of kinase buffer, and the final reaction (50 μl) was incubated 30 minutes at 30° C. The reaction was stopped by adding 40 μl of Laemmli buffer. 20 μl of sample was loaded onto a 10% polyacrylamide gel for fractionation and western detection development.
# Variably however, the degree of inhibition sometimes exceeded the baseline activity in the absence of PDK. Thus, it is possible that Aβ may have an additional action to deactivate Akt. […] Insulin stimulated Akt activity in extracts made from C2C12myotube cultures (FIG. 9A, 3rd row, lane 2 vs. 1). […]
# In FIG. 9B Aβ42 (10 μM) and scrambled Aβ42 had no effect on insulin-conditioned Akt1 activity. Protein phosphatase 2A (PP2A; 5 μg/ml) decreased levels of both p-Akt (Ser473) and Akt activity (p-GSK-3 α/β), quantified by densitometry below.
# Rictor-stimulated Akt1 = biological target: T2, Rictor-stimulated Akt1; experiment: Rictor-dependent Akt1 activity, in vitro kinase assay; assay type: biochemical, mouse (C2C12 myotubes); conditions: 10 μM
# T2 construct: endogenous in cells; host or cells: Rictor from insulin-treated C2C12 myotubes
# Source text: Another kinase, termed SGK (serum/glucocorticoid regulated kinase), is also activated by PDK. Similar to Akt, SGK has a PH domain and phosphorylates GSK-3 α/β (Kobayashi, T., Deak, M., Morrice, N., and Cohen, P., 1999, Characterization of the structure and regulation of two novel isoforms of serum- and glucocorticoid-induced protein kinase, Biochem J 344 Pt 1:189-197, and Tessier, M., and Woodgett, J. R., 2006, Serum and glucocorticoid-regulated protein kinases: variations on a theme, J Cell Biochem 98:1391-1407). If Aβ inhibits PH-mediated activations of Akt independent of PIP3, it is predicted to affect this mechanism too. Indeed, in FIG. 7D, ADDL-containing Aβ preparations inhibited PDK-stimulated SGK activity (lane 7 vs. 6 and 5). […] This enhanced activity was not however, interrupted by Aβ (10 μM, lane 4 vs. 3). Lastly, another kinase that converges to phosphorylate GSK, PKA (Grimes, C. A., and Jope, R. S., 2001, The multifaceted roles of glycogen synthase kinase 3beta in cellular signaling, Prog Neurobiol 65:391-426; Li, M., Wang, X., Meintzer, M. K., Laessig, T., Birnbaum, M. J., and Heidenreich, K. A., 2000, Cyclic AMP promotes neuronal survival by phosphorylation of glycogen synthase kinase 3beta, Mol Cell Biol 20:9356-9363), was tested. […] Thus, the mechanism of Aβ inhibition of Akt activation is specific to PDK-like kinases. […]
# [1] = test system: PI3K (p85) from NIH/3T3 cells; experiment: PI3K activity assay (conversion of PI to PI3P, TLC); assay type: biochemical
# Experimental: PI3K was immunoprecipitated (IP) from the NIH/3T3 cell lysates with rabbit anti-p85 subunit (Upstate). The IPs were washed twice with cold phosphate buffered saline (PBS) buffer containing 0.5% NP-40 and 0.1 mM Na3VO4, and then twice with THE buffer [Tris.HCl pH7.4 20 mM, NaCl 100 mM, EGTA 0.5 mM]. PI3K activity was determined by incubating the beads with kinase buffer [6.5 mM HEPES (pH 7.4), 10 mM MgCl2] with 50 μM ATP, 2 μCi [y-32P]ATP, 4 μg of 3-sn-Phosphatidyl-L-serine (PS) and 2 μg of D-myo-Phosphatidylinositol (PtdIns; PI) (Echelon, Salt Lake City, Utah) for 10 min at room temperature. The reactions were stopped by adding 50 μl of 4N HCl. Phospholipids were extracted using 100 μl of CHCl3/methanol (1:1). […] The conversion of PI to PI3P was detected and quantified using a Storm Phosphorimager (GE Healthcare).
# Phosphatidylinositol (PI), including phosphatidylserine (PS) as a carrier, was used as a substrate for PI3K activity assay. [y-32P]ATP and kinase buffer were added to the IP and lipid mixture at room temperature to start the reaction. Phospholipids were extracted in 100 μl of CHCl3/methanol and separated by TLC. Bar charts give quantified results using a phosphorimager.
# [2] = test system: PDK-dependent activation of Akt1; experiment: In vitro PDK-dependent Akt1 phosphorylation and activity assay (immunoprecipitated PDK1 and Akt1, GSK-3 fusion protein substrate); assay type: biochemical, human (SH-SY5Y, HEK293), mouse (C2C12); conditions: for IC50: in vitro Aβ conditions; for Ki: monomeric-predominant preparations
# Experimental: as §1
# Immunoprecipitates (IPs) of PDK1 and Akt were prepared from 100 μg of either SH-SY5Y, C2C12 myotubes or from insulin-treated cultures. ATP (200 μM), GSK-3 fusion protein (1 μg/50 μl) and kinase buffer were added to the reaction. Various Aβ peptides were finally added at 0.01, 0.1, 1, 5, 10, 20 μM. Akt activity level was otherwise determined as above.
# [3] = FIG. 7A, vs reverse peptide 5 μM
# T1 sequence (P31750 whole entry): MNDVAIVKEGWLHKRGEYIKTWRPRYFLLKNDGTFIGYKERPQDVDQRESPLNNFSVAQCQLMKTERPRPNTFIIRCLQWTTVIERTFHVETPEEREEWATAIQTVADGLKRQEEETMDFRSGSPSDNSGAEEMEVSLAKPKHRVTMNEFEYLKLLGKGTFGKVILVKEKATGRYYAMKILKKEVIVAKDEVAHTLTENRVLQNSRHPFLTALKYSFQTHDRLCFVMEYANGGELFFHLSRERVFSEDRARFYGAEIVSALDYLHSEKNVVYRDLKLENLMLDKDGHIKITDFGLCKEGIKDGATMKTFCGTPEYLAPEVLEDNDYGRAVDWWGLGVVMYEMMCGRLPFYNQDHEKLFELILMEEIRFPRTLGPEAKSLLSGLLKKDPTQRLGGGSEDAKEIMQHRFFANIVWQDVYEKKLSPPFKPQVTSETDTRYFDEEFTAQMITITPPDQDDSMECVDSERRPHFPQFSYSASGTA
# T2 sequence (P31749 whole entry): as the sequence (P31750 whole entry) above, with N2S, S50A, A100T, R112K, T117E, T389K, N410G, D415H counted along it
substance,measurement,setting,value
"Aβ42: synthetic 42 amino acid β-amyloid peptide, forward sequence, freshly prepared, predominantly monomeric (BioSource)",insulin-conditioned Akt1 activity and p-Ser473 levels,pre-activated Akt1,no effect
same,Rictor-stimulated Akt1 activity,Rictor-stimulated Akt1,no change
same,PI3K activity,[1]; 10 μM peptide,did not; also recorded: no effect
same,PI3K activity,"[1]; dose-response: Aβ1-42 0.05, 0.5, 5 μM, reverse Aβ42-1 5 μM",no effect
same,effect on PDK-stimulated Akt activity (GSK-3 substrate phosphorylation),[2]; 5 μM (or doses up to 5 μM),dramatically inhibited
same,effect on PDK-stimulated Akt activity / Akt phosphorylation,[2]; 10 μM,completely abrogated
same,inhibition of Akt phosphorylation,"[2]; 10 μM, freshly prepared predominantly monomeric peptide",up to 50%
same,effect on PDK-stimulated Akt activity / Akt phosphorylation,"[2]; 10 μM, listed as Aβ",inhibited
same,concentrations that significantly inhibit Akt phosphorylation (activation),[2]; [3],≥ 10 µM
same,concentrations that significantly inhibit the stimulation of Akt activity,[2]; [3],≥ 5 µM
same,"concentration at which Akt activation (pSer473, pThr308) and Akt activity begin to be affected","[2]; SH-SY5Y IP kinases, FIG. 6B",~1 μM
same,IC50,"[2]; FIG. 7A, read-out: PDK-dependent Akt1 phosphorylation (Ki50)",~10000 nM
same,IC50,"[2]; activity assay, FIG. 7A, listed as Aβ, read-out: PDK-dependent Akt1 activation (Ki50)",~1000 nM
same,IC50,"[2]; activity assay, FIG. 7A, read-out: PDK-dependent Akt1 activation (Ki50)",1000 nM
same,Ki,[2]; read-out: Ki in activity assays,~2000 nM
same,Ki,[2]; read-out: Ki in western blots of p-Akt levels,~10000 nM
same,PDK stimulation of Akt activity after preincubation and washout,"[2]; preincubation of both IP kinases, washout before kinase reaction",no inhibitory effect
